Columns and labels:
cathepsin S = cathepsin S (Homo sapiens, UniProt P25774); test: Measurement of Cathepsin S inhibitory activity; format: biochemical; conditions: pH 6.5, 37° C.
Procedure: (iii) Measurement of Cathepsin S Inhibitory Activity
10 μL of synthesized substrate (carbobenzoxy-L-leucyl-L-leucyl-L-arguinine-4-methyl-chromanyl-7-amide) solution and 5 μL of cysteine protease inhibitor solution of several concentrations, 75)L of cathepsin S enzyme reaction buffer (100 mmol/L of sodium phosphate, 2 mmol/L of EDTA, 2 mmol/L of DTT were mixed to adjust to pH 6.5) and 10 μL of cathepsin S enzyme solution were mixed and the increase of fluorescence intensity was measured (λ ex(excitation wavelength)=355 nm, λ em (fluorescence wavelength)=460 nm) when reacted at 37° C.

Cathepsin K = target: T1, Cathepsin K (Homo sapiens, UniProt P43235); test: Measurement of Cathepsin K inhibitory activity; format: biochemical; conditions: Dixon plot, pH 5.5, 37° C.
T1 sequence (P43235 115-329): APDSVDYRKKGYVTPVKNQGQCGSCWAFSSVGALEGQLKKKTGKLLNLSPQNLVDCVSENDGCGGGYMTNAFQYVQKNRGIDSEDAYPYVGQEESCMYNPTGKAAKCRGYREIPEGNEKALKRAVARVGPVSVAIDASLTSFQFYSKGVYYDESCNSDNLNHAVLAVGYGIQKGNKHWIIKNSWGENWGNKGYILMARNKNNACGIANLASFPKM
Procedure: (i) Measurement of Cathepsin K Inhibitory Activity
65 μL of Cathepsin K enzyme reaction buffer (50 mmol/L of 2-(N-morpholino)ethanesulfonate, 2 mmol/L of ethylenediamine tetraacetate (EDTA) and 4 mmol/L of dithiothreitol (DTT) were mixed to adjust to pH 5.5), 5 μL of cysteine protease inhibitor solution of several concentrations, 20 μL of synthesized substrate (t-butyloxycarbonyl-L-alanyl-glycyl-L-prolyl-L-arginine-4-methyl-chromanyl-7-amide) solution of several concentrations and 10 μL of cathepsin K enzyme solution were mixed and the increase of fluorescence intensity when reacted at 37° C. was measured (λ ex (excitation wavelength)=355 nm, λ em (fluorescence wavelength)=460 nm). As to the substrate and the compound of the present invention, enzyme reactions were carried out in combination of several appropriate concentrations and Dixon plotting was prepared, to define the absolute value of X-coordinate of the intersection point of the graph as Ki value.

Chain of cathepsin S (P25774 115-331, species assumed): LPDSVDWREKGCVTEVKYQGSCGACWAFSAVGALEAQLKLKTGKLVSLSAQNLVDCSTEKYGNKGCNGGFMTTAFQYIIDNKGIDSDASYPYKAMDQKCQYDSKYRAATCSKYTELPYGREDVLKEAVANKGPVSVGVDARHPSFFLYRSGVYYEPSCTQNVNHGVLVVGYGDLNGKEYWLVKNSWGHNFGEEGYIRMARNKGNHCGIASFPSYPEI

Compound	inhibition at 1 µM (cathepsin S) [%]	Ki (Cathepsin K) [nM]
CC(C)C[C@H](NC(=O)[C@H](CC(C)C)NC(=O)OCc1ccccc1)C(=O)Cn1nc(CCc2ccccc2)oc1=O [example 3(17), 2(S)-N-[3(S)-1-(5-oxo-2-(2-phenylethyl)-1,3,4-oxadiazolin-4-yl)-2-oxo-5-methyl-3-hexyl]-2-benzyloxycarbonylamino-4-methylpentanamide]	90	
CC(C)C[C@H](NC(=O)[C@H](CC(C)C)NC(=O)OCc1ccccc1)C(=O)Cn1nnc(-c2c(F)c(F)c(F)c(F)c2F)n1 [example 1(40), 2(S)-N-[3(S)-1-(5-(perfluorophenyl)tetrazol-2-yl)-2-oxo-5-methyl-3-hexyl]-2-benzyloxycarbonylamino-4-methylpentanamide]		21
CC(C)C[C@H](NC(=O)[C@H](CC(C)C)NC(=O)OCc1ccccc1)C(=O)Cn1c(-c2ccc(F)cc2)noc1=O [example 3(7), 2(S)-N-[3(S)-1-(5-oxo-3-(4-fluorophenyl)-1,2,4-oxadiazolin-4-yl)-2-oxo-5-methyl-3-hexyl]-2-benzyloxycarbonylamino-4-methylpentanamide]		36

From patent US7390804B2, “N-containing five-membered ring compounds and pharmaceutical agents comprising the same as active ingredient” (Ono Pharmaceutical Co., Ltd., priority 2000, dated 2008)
